Marks after values point to notes of the source that are not given here.

We go through two molecules from patent US10197574B2, “Analyte detection using near-infrared fluorophores” (Portland State University, priority 2011, dated 2019).

The nature of series [1]: Spectral properties of rhodamine bis-boronic acids and precursors (Table 5). The class given is physicochemical. The text has this:
Excitation and emission spectra were normalized to their absorbance at the excitation wavelength, and are proportional to quantum yield.

Series [2] can be described thus: Saccharide sensing, absorbance and fluorescence response. How it is done:
Solvents including MeCN, MeOH, EtOH, DMSO and buffer were initially screened for sugar sensing. […] DMSO mixtures were chosen for further studies.
The final pH 7.4 phosphate buffer concentration was 12.5 mM.

Series [3] can be described thus: Saccharide sensing, response to ribose. The conditions noted are these: DMSO:buffer 1:1, entire concentration range investigated. How it is done: The spectral behavior of both compounds 51 and 53 in the presence of saccharides was further investigated in both 1:1 and 1:9 DMSO-buffer (final pH 7.4 phosphate buffer concentration of 12.5 mM) solutions. Both bis-boronic acids responded to binding of sugars through a red shift in their emission and the expected increase in fluorescence intensity.
FIGS. 37A-37D show the response of bis-boronic acid 51 to fructose, ribose and glucose under the two solvent conditions mentioned above. […] At high sugar concentrations, the response for all three sugars converged. […] An approximately 1.5-fold increase in both absorbance and fluorescence was observed over the entire concentration range investigated. Binding of all three sugars occurred at lower concentrations as compared to the 1:9 DMSO:buffer system, with the response of both ribose and fructose having already plateaued at 10 mM, the lowest concentration investigated. Unlike the 1:9 solvent system, there were significant spectral differences in the responses toward different sugars (FIG. 37C compared to FIG. 37A).

Series [4] in a line: Saccharide sensing, response to fructose. Conditions: DMSO:buffer 1:9; estimated from 140-fold fluorescence and 3-fold absorbance increase.
Setting [5] is: DMSO:buffer 1:1, pH 7.4 phosphate buffer 12.5 mM.
[6] abbreviates: DMSO:buffer 1:9, pH 7.4 phosphate buffer 12.5 mM.
[7] abbreviates: DMSO:buffer 1:9, high sugar concentrations, all sugars.

For the molecule `O=C(O)c1ccccc1-c1c2ccc(NCc3ccccc3B(O)O)cc2oc2c1ccc1cc(=NCc3ccccc3B(O)O)ccc12` [Compound 51], in series [1] (setting [5]), the Abs is listed as 579 nm, the Brightness is on record as 8037, the Em worked out at 643 nm and the Ex came to 580 nm. Also, in series [1] (setting [5]), the Q.Y. came out at 0.35 and the ε was found to be 23096 M⁻¹ cm⁻¹. Further, in series [1] (setting [6]), the Abs came out at 560 nm, the Brightness is given as 3032^e, the Em is recorded as 638 nm and the Ex was 568 nm. Further, in series [1] (setting [6]), the Q.Y. was 0.15 and the ε is 20326 M⁻¹ cm⁻¹. In series [2] (setting [7]), the increase in absorbance is reported as about 2 fold and the increase in fluorescence result is reported as “greater than 5 fold”. In series [3], the increase in absorbance entry is given as “approximately 1.5 fold” and the increase in fluorescence entry is on record as “approximately 1.5 fold”.

For `O=C(O)c1ccccc1-c1c2ccc3cc(NCc4ccccc4B(O)O)ccc3c2oc2c1ccc1cc(=NCc3ccccc3B(O)O)ccc12` [Compound 53], in series [4], the “quantum yield after binding” value is given as 0.186. For the same molecule, the increase in emission in series [2] (DMSO:buffer 1:1, all three sugars, emission at 720 nm, excitation at 640 nm) is reported as about 5 fold.
